According to patent US9045474B2, “Compounds and compositions for mitigating tissue damage and lethality” (The Regents of the University of California, priority 2010, dated 2015):
“Also recorded” adds a separate entry of the source.

How the values were obtained:
[1] = Preliminary studies of Targeted Library analogs (DEL/Survival assay); assay type: cell-based
Description: Analogues within at least 70% or greater similarity as defined by the Tanimoto rule of similarity are believed to have similar results as the aforementioned compounds in this application. […] Other structures within this limitation (Tanimoto rule of similarity as described and positive in DEL/Survival assay) are included. The DEL Assay, which is further described below, has established itself not only as a effective tool in carcinogenic activity detection but also as an effective methodology in establishing DNA protective properties against insults such as free radicals and ionizing radiation (see, e.g., Sobol, Z., et al., Mutation Research/Fundamental and Molecular Mechanisms of Mutagenesis, 2008. 638(1-2): p. 83-89, Hafer, K., Rivina, L., Schiestl, R H. Yeast DEL assay detects protection against radiation induced cytotoxicity and genotoxicity—adaptation of a microtiter plate version, Radiation Research, 2010, 174(6):719-26)). Thus, the DEL Assay is a reliable tool for the prediction of genotoxic and cytotoxic modulating agents. These agents also include, but are not limited to, ionizing radiation, UV radiation, environmental carcinogenesis, genetic instability, etc.
Compounds in the Targeted Library are selected as a development candidate using the Tanimoto coefficient. […]

C3H mice [2] = experiment: Mitigation of radiation-induced lethality in C3H mice (8Gy, LD100/30); conditions: 8Gy; for mice survived LD100/30 irradiation: 75 mg/kg at 1 hr and 25 hrs post exposure, past 30 days, first small study
Description: Radiomitigation studies were conduced by pre-treating C3H mice with the compounds of interest at as concentration of 75 mg/kg and at 24 hrs and 1 hr before an 8 Gy exposure. On a 5×24 mitigation treatment protocol mice were first lethally irradiated with 8 Gy and 24 hrs later received the first subcutaneous injection with the compound suspension with subsequent injections at 48, 72, 96, and 120 hrs. The concentration of the compound in the suspension was 75 mg/kg carrier with either 1N saline or phosphate buffer solution (PBS).
C3H mice in the mitigation experiment were irradiated with 8Gy and then injected with 75 mg/kg 1 hr post exposure and then again 25 hrs post exposure.

Yeast cells = experiment: DEL assay, antioxidant radioprotection by yeast growth phase; assay type: cell-based, Saccharomyces cerevisiae
Description: In this study we used the DEL assay to measure gamma-ray induced DNA deletions throughout different phases of yeast culture growth. While yeast survival only differed by as much as two fold throughout the yeast growth phase, proliferating cells in lag and early exponential growth phases were ten-fold more sensitive to ionizing radiation-induced DNA deletions than cells in stationary growth. […] The ability of antioxidants L-ascorbic acid and DMSO to protect against radiation-induced DNA deletions was also measured within the different phases of yeast culture growth. […] This knowledge was used for the screening of radioprotectors.

yeast S. cerevisiae = experiment: Yeast DNA deletions (reversion to histidine prototrophy) after γ-rays; assay type: cell-based, Saccharomyces cerevisiae; conditions: data not shown
[3] = system: Human lymphoblastoid cells; experiment: γ-H2AX foci formation after ionizing radiation; assay type: cell-based; conditions: data not shown
[4] = system: Human lymphoblastoid cells; experiment: Colony survival assay after ionizing radiation; assay type: cell-based; conditions: data not shown
mouse peripheral blood = system: mouse peripheral blood
Description: In this study, we examined the role of N-acetyl-L-cysteine (NAC), a clinically proven safe agent, for it's ability to protect against γ-ray-induced DNA strand breaks and/or DNA deletions in yeast and mammals. In the yeast S. cerevisiae, DNA deletions were scored by reversion to histidine prototrophy. Human lymphoblastoid cells were examined for the frequency of γ-H2AX foci formation, indicative of DNA double strand break formation. DNA strand breaks were also measured in mouse peripheral blood by the alkaline comet assay.

[5] = system: RS112 strain of S. cerevisiae; experiment: Classical DEL plating assay, radioprotection at 2000Gy irradiation; assay type: cell-based, Saccharomyces cerevisiae
Description: All DEL assays utilize the established methodology of “recombination” (deletion of the interruption segment and consequent end joining of the adjacent sequences) of a disrupted histidine gene that renders yeast cells exposed to radiation capable of growing on media lacking this amino acid. In the classical DEL assay radiation sensitive RS112 strain of S. cerevisiae is added to the compounds of interest suspended in complete media, incubated for 2 hrs, and irradiated at 2000Gy. The cells are then plated onto full (+13) and lacking histidine (−His) agar plates. After incubation the colonies are scored and recombination events are calculated. The efficacy of the compound is evaluated as a reduced fraction of DEL recombinations in comparison to that of irradiated controls without treatment. Radioprotectors decrease the frequency of such recombination frequencies after radiation exposure.
A plasmid with an internal fragment of the HIS3 gene, which is responsible for histidine synthesis in yeast, without which cells cannot survive in media lacking histidine, has been integrated at the HIS3 locus, yielding an integrative disruption of the HIS3 gene (Schiestl, R. H., et al., Genetics, 1988. 119(2): p. 237-47). […]

RS112 cells = experiment: DEL plating assay for mitigation of radiation damage (treatment after 2000Gy); assay type: cell-based, Saccharomyces cerevisiae
Description: The mitigation protocol is based on the same DEL assay principle of recombination of the disrupted HIS3 gene that renders the cells capable of synthesizing its own histidine following radiation exposure. To establish mitigation properties of the compounds in question, the classical DEL protocol is modified as follows: first the RS112 cells are irradiated with 2000Gy and then the treatments are administered at 0 min, 10 min, 20 min, 30 min, and 60 min, incubated for 2 hrs, and plated on +13 and −His agar plates. The efficacy of the compounds is scored the same way as in the classical DEL protocol. Yel1 and Yel2 analogues that are efficacious in the HTS and classical DEL assay are analyzed for mitigation activity using this modified DEL protocol.
Six confirmed hits were also tested for radioprotection with the compounds being presented to irradiated cells at different time points following irradiation exposure. The DEL Plating Assay was used with a radiation sensitive Saccharomyces cerevisiae RS112 strain.
The general DEL Assay is described above. In this example, DEL assay is a genetic construct in the Saccharomyces cerevisiae RS112 strain where a plasmid with an internal fragment of the HIS3 gene has been integrated at the HIS3 locus, yielding an integrative disruption of the HIS3 gene. […] The construct reverts to HIS3+ by recombination between the two his3 deletion alleles which is, in 99% of the cases, associated with the deletion of the entire 6 kilobasepairs of DNA comprising the integrated plasmid. DEL events are inducible with a variety of DNA-assaulting agents: radiation, smoking, UV exposure, 92% of the known carcinogens, etc.
RS112 cells irradiated with 2000Gy show an induction of the deletion frequencies (DEL events) and roughly a 90% killing.

mammalian cell lines = experiment: Therapy Bioluminescence Assay (survival following irradiation); assay type: cell-based; conditions: data not shown
C3H mice [6] = experiment: Toxicity experiments in C3H mice; assay type: in vivo, mouse; conditions: 150 mg/kg, 75 mg/kg and 5 mg/kg; 120 days following the injections
Description: Having seen no adverse effects of the chemicals alone on mammalian cell models we performed a preliminary toxicity study on a group of C3H mice. […] In a pilot reproductive toxicity study, 12, week old female mice were paired up with 6 week old male mice and checked daily for the presence of a characteristic “plug” in the female vaginal canal as an indication of mating. As soon as the mating has occurred, males were removed and the females were treated weekly with 75 mg/kg s.c. throughout the gestation period and until the pups were weaned off (8 week treatment course). After weaning, treatment of the offspring was initiated at the same 75 mg/kg s.c. weekly dose. Controls were injected s.c. on the same schedule with the carrier (1N saline). Five treated and five control females gave birth to the same average number of pups per litter (n=6) without any detectable toxicities to the other. 3 litters of each treated and control groups survived to continue the study. No pathologies, toxicities nor adverse effects were observed. There are no developmental or teratogenic deficiencies in mice, average weights (21 g) are the same in both groups also.

DBA/2 Mice = experiment: Radiation-induced leukemia model; assay type: in vivo, mouse
Description: DBA/2 Mice (15/group) were irradiated with ^60Co (3.5 Gy, 0.6 Gy/min) to induce leukemia. One group received no drug, another group of mice were injected s.c. with Yel001 or Yel002 (25 mg/kg) with 5 injections for 5 days. Leukemogenesis was monitored for 90 days. Blood was drawn at days −1, 21, 42, and 63 to monitor for leukemia every 21 days to monitor for leukemia development using WBCs and differentials. This leukemia model takes advantage of non-targeted radiation effects, which are important to the carcinogenic process. This model has a shorter latency period to gamma radiation-induced leukemia (latency to 50% leukemic population: 107 days) than other murine leukemia models such as CBA mouse (399 days: 50% leukemic population). DBA/2 mice were irradiated with 3.5 Gy (^60Co 0.60 Gy/min) and then injected intravenously with (5×10^6) FDC-P1 cells. Animals were then monitored 5×/weekly for 10 weeks-post-injection and then daily after 10 weeks-post-injection until leukemia development and/or euthanasia. After the animal has been determined to be leukemic using hematological parameters, it is euthanized and a necropsy is conducted to definitively determine a conclusive diagnosis of leukemia. Control animals not developing leukemia are assessed at 270 days post experiment initiation. At that time they are euthanized and necropsied.

[7] = system: yeast DEL tester strain RS112; experiment: DEL assay, UV radiation-induced damage; assay type: cell-based, Saccharomyces cerevisiae
Description: DEL tester strain was irradiated with 4000 J/m^2 in the ultraviolet range and treated with Yel001 or Yel002 at 60 minutes at the concentration of 15 uM.

DEL RS112 tester strain = experiment: DEL assay, damage by chemical carcinogen MMS; assay type: cell-based, Saccharomyces cerevisiae; conditions: 15 uM, 1 hrs after exposure to MMS
Description: A DEL assay, described above, is used for assessing mitigation of damage induced by chemical carcinogens by compounds of invention.
Tests in this example show administration of Yel001 and Yel002 confers reduction against chemical carcinogen Methyl methanesulfonate (MMS) in vitro.
Reduction of cytotoxicity and genotoxicity with Yel002 is p<0.007 and p<0.04 restively; p-values for Yel001 are 0.0007 (genotoxicity) and 0.1 for cytotoxicity.

[8] = lag and early exponential growth phases
[9] = non-dividing cells in stationary phase

## Cc1sc(NC(=O)CN(Cc2ccccc2)C(=O)c2ccccc2)c(C(N)=O)c1C [2-[2-(Benzoyl-benzyl-amino)-acetylamino]-4,5-dimethyl-thiophene-3-carboxylic acid amide]
[1]
  activity in preliminary studies: shown activity

## NCCCNCCSP(=O)(O)O [Amifostine, reference compound]
C3H mice [2]
  mice survived LD100/30 irradiation: 33%

## C[S+](C)[O-] [DMSO]
Yeast cells; [8]
  protection against radiation-induced DNA deletions: protected
Yeast cells; [9]
  protection against radiation-induced DNA deletions: could not be protected

## O=C1O[C@H]([C@@H](O)CO)C(O)=C1O [L-ascorbic acid]
Yeast cells; [8]
  protection against radiation-induced DNA deletions: protected
Yeast cells; [9]
  protection against radiation-induced DNA deletions: could not be protected

## CC(=O)N[C@@H](CS)C(=O)O [NAC, N-acetyl-L-cysteine]
Yeast S. cerevisiae
  frequency of IR-induced DNA deletions: reduced the frequency of IR-induced DNA deletions
  protection against cell death: did not protect against cell death
[3]
  γ-H2AX foci formation: reduced γ-H2AX foci formation
[4]
  protective effect in colony survival: no protective effect
Mouse peripheral blood; mouse, in vivo
  genotoxicity of treatment alone: not genotoxic
Mouse peripheral blood; via drinking water, whole-body irradiated with 1 Gy
  protection against DNA strand breaks: fully protected against DNA strand breaks

## Cc1sc(NC(=O)CN(Cc2ccc(F)cc2)C(=O)c2ccccc2)c(C(N)=O)c1C [Yel001]
[5]
  radioprotector characteristics (genotoxicity and cytotoxicity protection): radioprotector characteristics
RS112 cells; compound added 0-60 min after 2000Gy, p<0.05
  reduction of DEL events (gene reversion frequency): decreased DEL frequencies; also recorded: significant reduction of genetic instability
RS112 cells; compound added at time points after 2000Gy, significant only at 60 min
  mitigation of radiation cytotoxicity (survival): increased survival fractions; also recorded: mitigation of radiation cytotoxicity has been observed
Mammalian cell lines
  survival following irradiation as compared to that of controls: 130%
C3H mice [6]
  adverse physiological or behavioral effects: did not show any adverse physiological nor behavioral adverse effects
DBA/2 Mice; 3.5 Gy, 25 mg/kg s.c., no drug also within 42 days
  first development of leukemia: 42 days
DBA/2 Mice; Day 94, 3.5 Gy, 25 mg/kg s.c. 5 injections, irradiated controls 30%
  mice exhibiting leukemia: 20%
DBA/2 Mice; Day 270, irradiated population 90%
  leukemia frequency: 50%
DBA/2 Mice; FIG. 17
  latency to leukemia development: increased latency to leukemia development
DBA/2 Mice; FIG. 18
  frequency of radiation induced and/or spontaneous cancer: effective for reducing the frequency of radiation induced and spontaneous cancer
[7]; 15 uM, P<0.05
  UV genotoxicity and cytotoxicity: reduces cell death and genotoxicity; also recorded: significantly reduces genotoxicity and cytotoxicity
[7]; 4000 J/m^2 UV, 15 uM at 60 minutes, untreated 0.64%
  survival: 2.91%
DEL RS112 tester strain
  genotoxicity and cytotoxicity by MMS: reduction in genotoxicity and cytotoxicity; also recorded: can be mitigated
C3H mice [2]; 75 mg/kg 1.25 protocol
  mitigation efficacy: did show therapeutic benefit
C3H mice [2]; 75 mg/kg 1.25 protocol, listed as Yel1
  mitigation efficacy: show activity
C3H mice [2]
  mice survived LD100/30 irradiation: 67%
C3H mice [2]; 75 mg/kg s.c. 5×24 protocol
  mitigation efficacy: did not exhibit significant efficacy
C3H mice [2]; 75 mg/kg s.c. 5×24 protocol, listed as Yel1
  mitigation efficacy: also showed efficacy
C3H mice [2]; both protocols, 252 days post irradiation
  percentage of survivors: 30%
C3H mice [2]; both protocols, +292 days
  animals still alive beyond 30 day window: 30%
